Source: patent US20200230100A1, “AGONIST OF 67 KDA LAMININ RECEPTOR AND UTILIZATION THEREOF” (priority 2017, published 2020)
Values belong to the compound of their own block, whether it stands above or below them.

Legend:
HL60 = assay: Anti-cancer action: number of viable cells (ATPlite) after 96 hours of culture; assay type: cell-based; details: HL60 human acute myeloid leukemia cell line
Kasumi-1 = assay: as above; assay type: cell-based; details: Kasumi-1 human acute myeloid leukemia cell line
U266 [1] = assay: as above; assay type: cell-based; details: U266 human multiple myeloma cell line
Protocol: (§1) Specifically, OHBFB was added to a medium of various cancer cell lines and the number of viable cells was measured. For comparison, the anti-cancer action of epigallocatechin gallate (hereinafter sometimes referred to as “EGCG”) was also studied similarly.
(§2) Examples of the cancer cell lines include U266 which is a human multiple myeloma cell line, ARH77 which is a human multiple myeloma cell line, RPMI8226 which is a human multiple myeloma cell line, Mec-1 which is a human chronic lymphocytic leukemia cell line, HL60 which is a human acute myeloid leukemia cell line, Kasumi-1 which is a human acute myeloid leukemia cell line, and KU812 which is human chronic myeloid leukemia cell line were used.
(§3) As each of the cancer cell lines, a cell line obtained by subculturing the cells under the conditions of 37° C. and 5% CO2 saturated with water vapor using an RPMI 1640 medium supplemented with a 10% fetal calf serum (FCS), and culturing and maintaining the cells in a logarithmic growth phase.
(§4) EGCG (manufactured by Sigma-Aldrich) was dissolved in ultrapure water to 5 mM, stored at −30° C., and appropriately thawed before use. OHBFB (manufactured by Nagara Bioscience) was dissolved in ultrapure water to 5 mM, stored at −30° C., and appropriately thawed before use.
(§5) Each of the cancer cell lines was suspended in an RPMI 1640 medium supplemented with a 1% FCS, superoxide dismutase (SOD) (5 U/mL), and a catalase (200 U/mL) to 5×10^4 cells/mL, the suspension was seeded at 100 μL/well in a 96-well plate, OHBFB or EGCG at a final concentration of 0, 5, 10, or 25 μM was added thereto, and the cells were cultured for 96 hours. Thereafter, the number of viable cells was measured using a commercially available kit (trade name “ATPlite,” PerkinElmer).

ARH77 = assay: as above; assay type: cell-based; details: ARH77 human multiple myeloma cell line
Protocol: as §1, §2, §3, §4, §5

RPMI8226 = assay: as above; assay type: cell-based; details: RPMI8226 human multiple myeloma cell line
Protocol: as §1, §2, §3, §4, §5

KU812 = assay: as above; assay type: cell-based; details: KU812 human chronic myeloid leukemia cell line
Protocol: as §1, §2, §3, §4, §5

Mec-1 = assay: as above; assay type: cell-based; details: Mec-1 human chronic lymphocytic leukemia cell line
Protocol: as §1, §2, §3, §4, §5

U266 [2] = assay: Anti-cancer activity enhancing action by flavanone (ATPlite cell viability); assay type: cell-based, human; details: U266, flavanone 5 μM with OHBFB 2.5 μM, 96 hours
Protocol: Specifically, U266 which is a human multiple myeloma cell line was suspended in an RPMI 1640 medium supplemented with 1% FCS, SOD (5 U/mL), and a catalase (200 U/mL) to 5×10^4 cells/mL, and the suspension was seeded at 100 μL per well in a 96-well plate. […] As a control, a sample to which the same volume of PBS had been added instead of flavanone was used. As the flavanone, eriodictyol (manufactured by Extrasynthese Corp.), naringenin (manufactured by Tokyo Chemical Industry Co., Ltd.), and hesperetin (manufactured by Wako Pure Chemical Industries, Ltd.) were used. Subsequently, the cell viability was measured using a commercially available kit (trade name “ATPlite,” PerkinElmer).

U266 [3] = assay: Anti-cancer activity enhancing action by eriodictyol (ATPlite cell viability, isobologram analysis); assay type: cell-based, human
U266 [4] = assay: Anti-cancer activity enhancing action by PDE5 inhibitor vardenafil (ATPlite cell viability, isobologram analysis); assay type: cell-based; details: Homo sapiens, U-266, 96 h, read-out: IC50 of vardenafil alone

IC50 (HL60): 9.5 µM | IC50 (Kasumi-1): 9.6 µM | IC50 (U266 [1]): 11.8 µM | IC50 (ARH77): 4 µM | IC50 (RPMI8226): 11.1 µM | IC50 (KU812): 6.2 µM | IC50 (Mec-1): 8.3 µM
SMILES: O=C(O[C@@H]1Cc2c(O)cc(O)cc2O[C@@H]1c1cc(O)c(O)c(O)c1)c1cc(O)c(O)c(O)c1 [EGCG, epigallocatechin gallate]

SMILES: O=C1C[C@@H](c2ccc(O)c(O)c2)Oc2cc(O)cc(O)c21 [eriodictyol]
cell viability: enhancement of OHBFB anti-cancer activity by flavanone (U266 [2]): enhance the anti-cancer activity of OHBFB | IC50 (U266 [3]; Homo sapiens, U-266, 96 h, read-out: IC50 of eriodictyol alone): 89.4 µM | combined use of OHBFB and eriodictyol (isobologram analysis) (U266 [3]; U266, isobologram): synergistically enhances the anti-cancer activity of OHBFB

SMILES: COc1ccc([C@@H]2CC(=O)c3c(O)cc(O)cc3O2)cc1O [hesperetin]
cell viability: enhancement of OHBFB anti-cancer activity by flavanone (U266 [2]): enhance the anti-cancer activity of OHBFB

SMILES: O=C1C[C@@H](c2ccc(O)cc2)Oc2cc(O)cc(O)c21 [naringenin]
cell viability: enhancement of OHBFB anti-cancer activity by flavanone (U266 [2]): enhance the anti-cancer activity of OHBFB

SMILES: CCCc1nc(C)c2c(=O)[nH]c(-c3cc(S(=O)(=O)N4CCN(CC)CC4)ccc3OCC)nn12 [vardenafil]
IC50 (U266 [4]): 92.7 µM
